Test results from patent US7767814B2, “Substituted piperidine compounds and methods of their use” (Adolor Corporation, priority 2004, dated 2010).
pKi: −log10 of the molar value.

Key:
[1] = biological target: cloned human κ opioid receptor (Homo sapiens, UniProt P41145); conditions: cloned human opioid receptors; background statement; read-out: Ki, inhibition of [3H]diprenorphine binding, κ receptor; cited from earlier work
[2] = biological target: cloned human δ opioid receptor (Homo sapiens, UniProt P41143); conditions: cloned human opioid receptors; background statement; read-out: Ki, inhibition of [3H]diprenorphine binding, δ receptor; cited from earlier work
[3] = biological target: T1, cloned human μ opioid receptor (Homo sapiens, UniProt P35372); assay: [3H]diprenorphine receptor binding, cloned human μ opioid receptor
T1 construct: expressed in transfected cells; membranes used
Protocol: IC50 values were obtained by nonlinear analysis of the data using GraphPad Prism version 3.00 for Windows (GraphPad Software, San Diego). Ki values were obtained by Cheng-Prusoff corrections of IC50 values.
After dilution in buffer A and homogenization as before, membrane proteins (10-80 μg) in 250 μL were added to mixtures containing test compound and [^3H]diprenorphine (0.5 to 1.0 nM, 40,000 to 50,000 dpm) in 250 μL of buffer A in 96-well deep-well polystyrene titer plates (Beckman). […] The filters were rinsed 4 times with 1 mL of cold 50 mM Tris HCl, pH 7.8 and radioactivity remaining on the filters determined by scintillation spectroscopy. Nonspecific binding was determined by the minimum values of the titration curves and was confirmed by separate assay wells containing 10 μM naloxone.
To determine the equilibrium dissociation constant for the inhibitors (Ki), radioligand bound (cpm) in the presence of various concentrations of test compounds was measured. The concentration to give half-maximal inhibition (EC50) of radioligand binding was determined from a best nonlinear regression fit to the following equation, […]

cloned human κ opioid receptor, sequence (P41145 whole entry): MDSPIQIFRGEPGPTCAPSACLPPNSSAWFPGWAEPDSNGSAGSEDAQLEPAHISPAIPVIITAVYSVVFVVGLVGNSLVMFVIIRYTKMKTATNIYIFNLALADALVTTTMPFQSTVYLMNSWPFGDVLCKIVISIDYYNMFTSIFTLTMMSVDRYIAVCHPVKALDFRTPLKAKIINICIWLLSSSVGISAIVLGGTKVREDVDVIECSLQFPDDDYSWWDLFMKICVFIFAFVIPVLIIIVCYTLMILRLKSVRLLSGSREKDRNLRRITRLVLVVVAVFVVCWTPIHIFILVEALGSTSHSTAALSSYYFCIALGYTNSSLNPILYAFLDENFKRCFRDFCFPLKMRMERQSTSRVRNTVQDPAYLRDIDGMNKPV
T1 sequence (P35372 whole entry): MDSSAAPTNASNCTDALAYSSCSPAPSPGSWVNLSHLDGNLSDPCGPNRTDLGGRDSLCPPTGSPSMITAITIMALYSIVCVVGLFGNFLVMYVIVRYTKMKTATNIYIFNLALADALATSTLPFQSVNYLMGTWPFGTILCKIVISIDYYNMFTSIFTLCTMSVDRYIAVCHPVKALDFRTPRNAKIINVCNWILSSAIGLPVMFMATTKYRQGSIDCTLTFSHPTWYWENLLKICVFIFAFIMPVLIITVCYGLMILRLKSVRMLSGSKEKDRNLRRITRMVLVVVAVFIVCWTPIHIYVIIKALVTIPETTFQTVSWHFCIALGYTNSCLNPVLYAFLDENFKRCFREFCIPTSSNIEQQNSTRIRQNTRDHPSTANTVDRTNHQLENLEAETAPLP
cloned human δ opioid receptor, sequence (P41143 whole entry): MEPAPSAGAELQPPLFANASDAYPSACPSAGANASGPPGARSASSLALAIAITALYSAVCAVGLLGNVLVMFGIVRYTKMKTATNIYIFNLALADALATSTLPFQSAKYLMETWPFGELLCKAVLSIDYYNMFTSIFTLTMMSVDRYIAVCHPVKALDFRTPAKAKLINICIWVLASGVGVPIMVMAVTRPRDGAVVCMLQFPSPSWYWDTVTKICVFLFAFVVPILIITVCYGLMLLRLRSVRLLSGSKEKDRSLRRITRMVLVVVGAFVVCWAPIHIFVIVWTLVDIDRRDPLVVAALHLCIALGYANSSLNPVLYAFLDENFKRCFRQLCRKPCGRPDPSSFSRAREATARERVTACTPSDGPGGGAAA

SMILES	pKi [1]	pKi [2]	pKi [3]
C[C@H]1CN(C[C@H](Cc2ccccc2)C(=O)NCC(=O)O)CC[C@@]1(C)c1cccc(O)c1 [Alvimopan]	7.04	8.00	–
C[C@H]1C2CCC[C@]1(c1cccc(O)c1)CCN2C[C@H](Cc1ccccc1)C(=O)NCC(=O)O [Example 2, {2S-Benzyl-3-[5-(3-hydroxy-phenyl)-9-methyl-2-aza-bicyclo[3.3.1]non-2-yl]-propionylamino}-acetic acid]	–	–	8.82
